Values joined by “and” are separate entries in the source; they are usually repeats but may differ in a detail not shown here. Identical values can stand only once. Like-named read-outs stand apart in the source and are kept apart here.
Tests used:
[1] = biological target: T1, MtrA (Mycobacterium tuberculosis, UniProt P9WGM7); test: EMSA: binding of phosphorylated MtrA to fbpB promoter DNA; design: species or system Mtb
T1 construct: Full length MtrA/Rv3246c excluding the stop codon; His (C); made in house; host or cells: E. coli C41(DE3)
T1 sequence (P9WGM7 1-228): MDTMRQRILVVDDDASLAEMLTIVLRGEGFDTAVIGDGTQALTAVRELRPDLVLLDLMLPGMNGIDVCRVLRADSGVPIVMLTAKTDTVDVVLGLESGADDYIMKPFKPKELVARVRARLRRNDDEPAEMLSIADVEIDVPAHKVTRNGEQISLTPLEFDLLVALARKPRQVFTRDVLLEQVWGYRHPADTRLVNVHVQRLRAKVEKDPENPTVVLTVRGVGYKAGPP

[2] = biological target: T2, RegX3 (Mycobacterium tuberculosis, UniProt P9WGL9); test: EMSA: binding of phosphorylated RegX3 to ppk1 promoter DNA; design: species or system Mtb
T2 construct: made in house; host or cells: E. coli
T2 sequence (P9WGL9 1-227): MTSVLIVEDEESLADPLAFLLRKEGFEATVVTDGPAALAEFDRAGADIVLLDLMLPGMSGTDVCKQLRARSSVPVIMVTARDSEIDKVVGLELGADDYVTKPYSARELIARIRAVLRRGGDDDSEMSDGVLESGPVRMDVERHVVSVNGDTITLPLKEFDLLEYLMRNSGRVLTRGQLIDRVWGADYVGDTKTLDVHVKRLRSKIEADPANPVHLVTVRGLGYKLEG

[3] = biological target: T3, MprA (Mycobacterium tuberculosis, UniProt P9WGM9); test: EMSA: binding of phosphorylated MprA to mprA promoter DNA; design: species or system Mtb
T3 construct: His (N); made in house; host or cells: E. coli BL21(DE3)
T3 sequence (P9WGM9 1-230): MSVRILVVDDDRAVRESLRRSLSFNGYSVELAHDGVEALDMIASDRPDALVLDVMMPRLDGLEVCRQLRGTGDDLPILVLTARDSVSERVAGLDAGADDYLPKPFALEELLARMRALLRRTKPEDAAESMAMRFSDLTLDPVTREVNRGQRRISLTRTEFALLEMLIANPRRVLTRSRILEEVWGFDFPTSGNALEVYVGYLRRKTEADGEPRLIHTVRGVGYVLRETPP

[4] = biological target: T4, DosR (Mycobacterium tuberculosis, UniProt P9WMF9); test: EMSA: binding of phosphorylated DosR (DevR) to hspX promoter-derived DNA; design: species or system Mtb
T4 construct: His6; made in house; host or cells: E. coli C43(DE3)
T4 sequence (P9WMF9 whole entry): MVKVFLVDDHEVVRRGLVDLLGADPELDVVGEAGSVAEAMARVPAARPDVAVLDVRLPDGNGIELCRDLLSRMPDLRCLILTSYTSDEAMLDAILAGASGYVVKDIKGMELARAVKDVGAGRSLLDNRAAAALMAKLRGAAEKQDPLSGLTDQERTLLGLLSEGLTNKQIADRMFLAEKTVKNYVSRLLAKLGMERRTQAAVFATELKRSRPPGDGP

[5] = test system: Mtb; test: Alamar Blue assay of Mtb growth in vitro; assay type: cell-based, Mycobacterium tuberculosis H37Rv
[6] = test system: Mtb in BMDM; test: Mtb CFU in infected murine bone marrow derived macrophages; assay type: cell-based, Mycobacterium tuberculosis H37Rv; settings: MOI 5, 20 μM, after 6 days
[7] = test system: Mtb in hMDM; test: Mtb CFU in infected human monocyte derived macrophages; assay type: cell-based, Mycobacterium tuberculosis H37Rv; settings: MOI 5, 20 μM, after 6 days
[8] = test system: NO release from macrophages; test: NO (nitrite) release from macrophages, Griess reagent; assay type: cell-based
Method: For NO (nitrite) measurements, RAW264.7 was infected with Mtb in DMEM for 24–48 h. Nitrite was measured using Griess reagent (Invitrogen), according to the manufacturer’s instructions. Absorbance was read at 540 nm in an ELISA reader and the concentrations of nitrite were calculated against a standard curve.
(§1) RAW 264.7 cells or hMDMs or BMDMs were seeded at ~3x10^5 cells per well on 18 mm cover slips.
(§2) After infection and treatment with C2 or isoniazid (INH) , the cells were fixed with 4% paraformaldehyde for 10 min at 25°C followed by permeabilisation with 0.01% Triton X-100 in PBS for 10 min at 25°C. The cells were then treated with 10% BSA in PBS for 90 min at 25°C followed by treatment with anti-LC3 antibody at 4°C overnight. Cells were then washed with PBS and treated with Alexa488 conjugated secondary antibody for 90 min at 25°C. Cells were visualized in a Leica confocal […]
(§3) Bacterial CFU determinations
RAW264.7 cells or hMDMs or BMDMs were plated in 48 well plates. Cells were infected with Mtb and treated with C2 or C6 for the desired periods of time. […] CFUs were calculated in triplicate using standard procedures. […] Alamar Blue was added and readings were taken upon development of […]
For NO (nitrite) measurements, RAW264.7 or MDMs or BMDMs were infected with Mtb H37Rv. […] Supernatant nitrite concentrations were measured by reading absorbance at 540 nm and calculated using a standard curve. […]

[9] = test system: Mtb-infected macrophages; test: Autophagy assays in Mtb-infected macrophages (LC3-II immunoblot, LC3 puncta); assay type: cell-based; settings: for LC3 puncta formation in infected macrophages: BMDMs, hMDMs, RAW264.7, C2 20 μM, isoniazid 0.5 µg/ml
Method: For autophagy analysis, infected macrophages were lysed and immunoblotted with LC3 antibody. For the visualisation of LC3 puncta, infected macrophages were incubated with LC3 antibody followed by immunostaining with Alexa 488-conjugated secondary antibody. Images were acquired in a Leica confocal microscope. At least 100 cells were counted to enumerate the number of punctated cells. Detailed methods have been provided in the supplemental section.
as §1, §2, §3
RAW264.7 cells or hMDMs or BMDMs were plated in 48 well plates. Cells were infected with Mtb and treated with C2 or C6 for the desired periods of time. Infected cells were lysed in distilled water with 0.06% SDS. Serial dilutions of homogenates were plated on 7H11 agar plates supplemented with 10% OADC and incubated at 37 °C for 3–4 weeks. CFUs were calculated in triplicate using standard procedures. For Alamar Blue assays, bacteria from the cell lysates were washed and transferred to a 96 well plate in MB 7H9. Alamar Blue was added and readings were taken upon development of […]
For NO (nitrite) measurements, RAW264.7 or MDMs or BMDMs were infected with Mtb H37Rv. Control and infected supernatants obtained in the absence or presence of C2, were used for the measurement of nitrite using Griess reagent (Invitrogen), according to the manufacturer’s instructions. Supernatant nitrite concentrations were measured by reading absorbance at 540 nm and calculated using a standard curve. […]

[10] = test system: Mtb; assay type: cell-based, Mycobacterium tuberculosis H37Rv
[11] = test system: Mtb; test: Growth curve of Mtb (absorbance at 600 nm); assay type: cell-based, Mycobacterium tuberculosis H37Rv
[12] = test system: Mtb; test: qRT-PCR / semi-quantitative RT-PCR of Mtb gene expression; assay type: cell-based, Mycobacterium tuberculosis H37Rv
[13] = test system: Mtb Erdman; assay type: cell-based, Mycobacterium tuberculosis Erdman; settings: immunoblot
[14] = test system: RAW264.7; test: Survival of RAW264.7 measured by Alamar Blue

## 2-iminothiazolidine-4-one [Compound 2]
[1]
  Inhibition of DNA binding activity of MtrA: could inhibit DNA binding activity of MtrA
[1]; densitometry, read-out: IC50, inhibition of MtrA binding to fbpB promoter
  IC50: 21 µM
[2]
  Inhibition of binding ability of RegX3: inhibited the binding ability of RegX3
[2]; densitometry, read-out: IC50, inhibition of RegX3 binding to ppk1 promoter
  IC50: 18 µM
[3]
  Inhibition of binding ability of MprA: inhibited
[3]; densitometry, read-out: IC50, inhibition of MprA binding to mprA promoter
  IC50: 4 µM
[4]
  Inhibition of DosR binding to hspX promoter-derived DNA fragment: did not inhibit binding of DosR
[5]
  In vitro IC50 against Mtb: 6 µg/mL
  In vitro MIC against Mtb: 17 μg/ml and 25 μM
[5]; listed as C2
  In vitro IC50 against Mtb: ~ 6 μg/ml
[5]; read-out: In vitro IC50 against Mtb
  IC50: 9 µM
[6]
  Decrease in CFU of Mtb in BMDMs: ~ 8 fold
[7]
  Decrease in CFU of Mtb in MDMs: ~ 8 fold
[8]; Mtb-infected BMDMs, hMDMs, RAW264.7, 20 μM
  NO release from infected macrophages: significantly higher
[8]; compound alone, data not shown
  NO release from uninfected macrophages: did not affect NO release
[9]
  LC3 puncta formation in infected macrophages: enhanced
[9]; Mtb infected RAW 264.7, immunoblot
  Conversion of LC3-I to LC3-II: enhanced
[10]
  Retention of pBP10 by Mtb: higher levels of retention of pBP10
[11]
  Growth curve of Mtb: levelled off earlier
[12]; 20 µM
  Expression of activated targets sigB, sigE, Rv0081, ftsI, dnaN, pstS3: repressed
  Expression of repressible targets rpfB, gltA1, cydA: augmented
  esxA expression: lowered
[12]; 20 µM, 48 hours of treatment
  Expression of espA and espR: reduced
[12]; exposure for 48 h
  Expression of mtrA, regX3 and mprA: inhibited
[13]
  ESAT-6 in the culture filtrate: reduced amounts of ESAT-6
[14]
  Viability of RAW264.7: did not affect the viability

## NNC(=O)c1ccncc1 [INH, isoniazid, reference compound]
[9]
  LC3 puncta formation in infected macrophages: enhanced

— paper PMC4867592, “Targeting multiple response regulators of Mycobacterium tuberculosis augments the host immune response to infection” (Scientific Reports, 2016)
